Assay results: the NIST ThermoML archive (doi:10.1021/je060339m)
± gives the expanded uncertainty stated by the source.

Details: Liquid

CCCCOC(C)=O [butyl ethanoate]
mass density [kg/m3]
Details	298.15 K	303.15 K	308.15 K	313.15 K	318.15 K	323.15 K	328.15 K	333.15 K	338.15 K
100 kPa	875.7 ± 3.2	870.4 ± 3.1	865.1 ± 3.1	859.9 ± 3.1	854.9 ± 3.1	849.7 ± 3.1	844.6 ± 3.1	839.6 ± 3.2	834.5 ± 3.2
1000 kPa	876.3 ± 3.3	871.1 ± 3.3	865.9 ± 3.3	860.8 ± 3.3	855.7 ± 3.3	851 ± 3.3	845.7 ± 3.3	840.7 ± 3.3	835.6 ± 3.3
2000 kPa	877.2 ± 3.4	872 ± 3.4	866.9 ± 3.4	861.7 ± 3.4	856.7 ± 3.4	852 ± 3.4	846.8 ± 3.4	841.8 ± 3.4	836.7 ± 3.4
3000 kPa	878 ± 3.5	872.9 ± 3.5	867.8 ± 3.5	862.7 ± 3.5	857.8 ± 3.5	853 ± 3.5	847.9 ± 3.5	842.9 ± 3.5	837.9 ± 3.5
3100 kPa	878.1 ± 3.5	873 ± 3.5	867.8 ± 3.5	862.7 ± 3.5	857.9 ± 3.5	853.1 ± 3.5	848 ± 3.5	842.9 ± 3.5	838 ± 3.5
5000 kPa	879.9 ± 3.7	874.7 ± 3.7	869.6 ± 3.7	864.6 ± 3.7	859.6 ± 3.7	854.6 ± 3.7	849.7 ± 3.7	844.9 ± 3.7	840.1 ± 3.7
10000 kPa	883.8 ± 4.3	878.8 ± 4.3	873.9 ± 4.3	869 ± 4.3	864.2 ± 4.3	859.4 ± 4.3	854.6 ± 4.3	850 ± 4.3	845.5 ± 4.3
15000 kPa	887.6 ± 4.9	882.8 ± 4.9	878 ± 4.9	873.2 ± 4.9	868.5 ± 4.9	863.9 ± 4.9	859.3 ± 4.9	854.8 ± 4.9	850.1 ± 4.9
20000 kPa	891.3 ± 5.5	886.5 ± 5.5	881.9 ± 5.5	877.2 ± 5.5	872.6 ± 5.5	868.1 ± 5.5	863.6 ± 5.5	859.3 ± 5.5	855 ± 5.5
25000 kPa	894.9 ± 6.1	890.2 ± 6.1	885.6 ± 6.1	881 ± 6.1	876.5 ± 6.1	872.3 ± 6.1	867.8 ± 6.1	863.6 ± 6.1	859.5 ± 6.1
30000 kPa	899.1 ± 6.7	894.4 ± 6.7	890 ± 6.7	885.6 ± 6.7	881.3 ± 6.7	877.3 ± 6.7	872.5 ± 6.7	868.6 ± 6.7	864.6 ± 6.7
35000 kPa	903.7 ± 7.3	899.1 ± 7.3	894.8 ± 7.3	890.5 ± 7.3	886.3 ± 7.3	882.4 ± 7.3	877.7 ± 7.3	873.9 ± 7.3	–
